Results on 13 compounds are retold here after paper PMC12668310, “High‐Throughput Synthesis and Screening of a Cyanimide Library Identifies Selective Inhibitors of ISG15‐Specific Protease mUSP18” (Angewandte Chemie (International Ed. in English), 2025).

Several values for one entry are separate records, joined by “and”; a condition that tells them apart may be missing. Identical values can stand only once. Like-named read-outs stand apart in the source and are kept apart here.

In assay [1] the target is T1, mUSP18 (Mus musculus, UniProt Q9WTV6).
T1 construct: (46-368); His-tag (N); made in house
T1 sequence (Q9WTV6 46-368): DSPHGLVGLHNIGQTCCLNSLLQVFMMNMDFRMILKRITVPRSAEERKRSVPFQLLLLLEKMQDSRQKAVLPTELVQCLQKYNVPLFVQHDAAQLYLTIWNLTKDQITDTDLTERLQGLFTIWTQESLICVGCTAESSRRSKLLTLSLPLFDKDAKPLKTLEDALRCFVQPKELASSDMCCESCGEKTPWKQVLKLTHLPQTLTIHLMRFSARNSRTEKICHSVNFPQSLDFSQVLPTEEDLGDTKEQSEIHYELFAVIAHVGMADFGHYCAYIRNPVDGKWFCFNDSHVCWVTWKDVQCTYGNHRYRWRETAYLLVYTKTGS
Nature of the assay: High-throughput screening, ISG15ct-RhoMP, single dose 1.25 µM. The note with it: mUSP18 %inhibition. The assay is classed as biochemical, murine.

In assay [2] the target is T2, UCHL3 (Homo sapiens, UniProt P15374).
T2 construct: (1-230); made in house
T2 sequence (P15374 1-230): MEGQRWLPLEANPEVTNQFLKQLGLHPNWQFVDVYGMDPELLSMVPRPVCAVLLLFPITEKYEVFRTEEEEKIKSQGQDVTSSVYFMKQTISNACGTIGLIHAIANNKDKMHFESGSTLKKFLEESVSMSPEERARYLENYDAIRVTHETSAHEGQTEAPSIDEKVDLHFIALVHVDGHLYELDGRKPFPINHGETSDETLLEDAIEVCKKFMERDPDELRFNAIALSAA
Description: IC50 determination, fluorogenic Ub-Rho-morpholine activity assay. The note with it: after 30 min incubation; purified compound. Format: biochemical.

In assay [3] the target is T1, mUSP18. Description: IC50 determination, fluorogenic ISG15CT-Rho-morpholine activity assay. The assay is classed as biochemical, murine. To be noted: after 30 min incubation; purified compound; ISG15CT-Rho-morpholine substrate.
The target in assay [4] is USP16 (Homo sapiens, UniProt Q9Y5T5). Description: biochemical.
USP16, sequence (Q9Y5T5 22-823): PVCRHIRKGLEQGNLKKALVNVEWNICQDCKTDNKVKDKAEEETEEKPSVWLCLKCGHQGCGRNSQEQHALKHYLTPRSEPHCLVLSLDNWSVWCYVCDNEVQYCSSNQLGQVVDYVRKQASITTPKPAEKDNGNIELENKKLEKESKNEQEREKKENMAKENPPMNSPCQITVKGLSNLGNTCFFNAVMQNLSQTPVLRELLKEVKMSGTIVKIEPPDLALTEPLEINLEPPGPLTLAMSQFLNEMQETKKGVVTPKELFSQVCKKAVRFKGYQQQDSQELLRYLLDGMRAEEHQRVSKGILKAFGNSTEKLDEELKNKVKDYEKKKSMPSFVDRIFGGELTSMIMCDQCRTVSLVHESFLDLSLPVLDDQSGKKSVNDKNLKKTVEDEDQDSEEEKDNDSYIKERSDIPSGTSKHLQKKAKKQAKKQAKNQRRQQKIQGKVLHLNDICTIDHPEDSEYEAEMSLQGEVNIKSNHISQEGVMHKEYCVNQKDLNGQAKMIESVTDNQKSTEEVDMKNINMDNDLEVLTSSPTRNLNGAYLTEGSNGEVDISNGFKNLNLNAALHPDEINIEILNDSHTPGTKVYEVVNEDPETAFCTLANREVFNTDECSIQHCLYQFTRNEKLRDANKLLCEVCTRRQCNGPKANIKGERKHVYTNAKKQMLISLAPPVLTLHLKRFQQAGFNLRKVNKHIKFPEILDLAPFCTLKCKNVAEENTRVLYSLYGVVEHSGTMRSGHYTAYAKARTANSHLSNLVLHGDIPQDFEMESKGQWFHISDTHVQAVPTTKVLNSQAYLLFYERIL
Description: This panel included five proteases from the USP family, two from the UCH family, and one OTU. The IC50 values were determined in a well‐established biochemical activity assay using the fluorogenic substrate Ub‐Rho‐morpholine.^[ [33] ^]
(§1) Enzymes were pre-incubated with a concentration series of the compounds for 30 minutes at
(§2) room temperature, before addition of the substrate and direct read-out by fluorescence
(§3) intensity. Data is presented as mean ± SD, n=3.
USP16 Full length N-terminal His-tag Q9Y5T5 In-house, [Mons, 2 nM
IC50 and kinact/KI determination
(§4) The assays were performed at room temperature in “nonbinding surface flat bottom low flange”
(§5) TrisꞏHCl, 100 mM NaCl, pH 7.6, 2.0 mM cysteine, 1 mg/mL 3-[(3-cholamidopropyl)-
(§6) dimethylammonio]propanesulfonic acid (CHAPS), and 0.5 mg/mL γ-globulins from bovine
(§7) blood (BGG). […] The compounds were dissolved in 10
(§8) mM DMSO stocks, and appropriate volumes were transferred to the empty plates using a
(§9) Labcyte Echo550 acoustic dispenser. A DMSO back-fill was performed to obtain equal volumes of DMSO (400 μL) in each well. N-ethylmaleimide (NEM, 10 mM) was used a positive
(§10) steps were performed on a Biotek MultiflowFX liquid dispenser. A 10 μL portion of buffer was added and the plate was vigorously shaken for 20s. Next, 5 μL of recombinant enzyme (4x final concentration) was added followed by incubation for 1h. A 5 μL portion of the substrate
(§11) (Ub-RhoMP[2] for all DUBs, ISG15ct-RhoMP (vide supra) for USP18 and Z-FR-AMC [Bachem,
(§12) RhoMP, 10 µM for Z-FR-AMC), and the increase in fluorescence over time was recorded using
(§13) excitation 360 nm, emission 450 nm for AMC). The initial enzyme velocities were calculated
(§14) from the slopes, normalized to the positive and negative controls, and plotted against the
(§15) inhibitor concentrations using the built-in equation “[inhibitor] vs response − variable slope
(§16) (four parameters), least-squares fit” with constraints “Bottom = 0” and “Top = 100” in GraphPad
(§17) Prism 7 software to obtain the IC50 values.
(§18) All data fitting and calculations were done using GraphPad Prism 7 software.
The target of assay [5] is T3, USP32 (Homo sapiens, UniProt Q8NFA0).
T3 construct: (1-1604); His-tag (N); made in house
T3 sequence (Q8NFA0 whole entry): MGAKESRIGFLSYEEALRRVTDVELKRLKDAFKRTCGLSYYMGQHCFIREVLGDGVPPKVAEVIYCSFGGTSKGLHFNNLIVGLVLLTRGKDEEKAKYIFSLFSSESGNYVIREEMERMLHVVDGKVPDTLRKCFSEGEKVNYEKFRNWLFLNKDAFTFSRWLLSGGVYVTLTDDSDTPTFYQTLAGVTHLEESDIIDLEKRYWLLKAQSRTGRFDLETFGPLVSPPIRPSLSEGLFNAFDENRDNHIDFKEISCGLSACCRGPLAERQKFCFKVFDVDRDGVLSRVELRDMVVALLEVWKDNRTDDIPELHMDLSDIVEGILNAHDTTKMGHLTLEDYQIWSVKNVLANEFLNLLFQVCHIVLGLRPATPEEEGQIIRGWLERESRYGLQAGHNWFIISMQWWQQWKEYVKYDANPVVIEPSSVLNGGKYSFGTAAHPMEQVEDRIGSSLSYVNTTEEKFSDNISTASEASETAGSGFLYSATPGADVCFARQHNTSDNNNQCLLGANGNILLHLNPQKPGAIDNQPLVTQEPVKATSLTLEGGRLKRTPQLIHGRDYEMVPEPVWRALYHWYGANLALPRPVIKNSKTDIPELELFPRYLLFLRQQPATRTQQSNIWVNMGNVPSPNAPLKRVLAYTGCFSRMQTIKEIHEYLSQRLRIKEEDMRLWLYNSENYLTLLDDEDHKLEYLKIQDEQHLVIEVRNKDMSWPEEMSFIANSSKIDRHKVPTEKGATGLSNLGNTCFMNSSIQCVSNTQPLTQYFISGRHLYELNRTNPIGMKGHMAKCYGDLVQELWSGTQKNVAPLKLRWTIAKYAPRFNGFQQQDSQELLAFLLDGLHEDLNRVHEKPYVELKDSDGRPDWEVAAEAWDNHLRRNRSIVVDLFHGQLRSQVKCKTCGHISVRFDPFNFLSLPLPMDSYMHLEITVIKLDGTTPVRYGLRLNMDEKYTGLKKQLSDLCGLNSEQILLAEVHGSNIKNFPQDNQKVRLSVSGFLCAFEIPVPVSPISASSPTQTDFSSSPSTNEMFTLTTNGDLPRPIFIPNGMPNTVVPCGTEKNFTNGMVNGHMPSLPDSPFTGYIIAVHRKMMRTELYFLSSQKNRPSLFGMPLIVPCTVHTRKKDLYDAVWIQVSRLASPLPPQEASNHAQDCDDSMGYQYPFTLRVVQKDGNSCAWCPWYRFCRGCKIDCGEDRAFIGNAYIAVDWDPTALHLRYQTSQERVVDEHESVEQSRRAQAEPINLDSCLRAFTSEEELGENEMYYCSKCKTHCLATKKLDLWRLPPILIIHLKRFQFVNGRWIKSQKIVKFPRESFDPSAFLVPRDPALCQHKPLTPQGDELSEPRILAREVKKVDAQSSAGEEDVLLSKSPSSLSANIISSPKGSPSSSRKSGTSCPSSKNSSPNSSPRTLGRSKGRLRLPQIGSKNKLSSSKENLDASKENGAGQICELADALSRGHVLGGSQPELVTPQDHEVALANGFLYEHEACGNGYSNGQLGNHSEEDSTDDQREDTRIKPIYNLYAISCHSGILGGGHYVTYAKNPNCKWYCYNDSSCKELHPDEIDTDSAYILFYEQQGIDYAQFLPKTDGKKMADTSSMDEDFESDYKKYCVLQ
Nature of the assay: IC50 determination, fluorogenic Ub-Rho-morpholine activity assay. To be noted: after 30 min incubation; purified compound. The assay is classed as biochemical.

For assay [6], the target named is T4, USP30 (Homo sapiens, UniProt Q70CQ3).
T4 sequence (Q70CQ3 57-517): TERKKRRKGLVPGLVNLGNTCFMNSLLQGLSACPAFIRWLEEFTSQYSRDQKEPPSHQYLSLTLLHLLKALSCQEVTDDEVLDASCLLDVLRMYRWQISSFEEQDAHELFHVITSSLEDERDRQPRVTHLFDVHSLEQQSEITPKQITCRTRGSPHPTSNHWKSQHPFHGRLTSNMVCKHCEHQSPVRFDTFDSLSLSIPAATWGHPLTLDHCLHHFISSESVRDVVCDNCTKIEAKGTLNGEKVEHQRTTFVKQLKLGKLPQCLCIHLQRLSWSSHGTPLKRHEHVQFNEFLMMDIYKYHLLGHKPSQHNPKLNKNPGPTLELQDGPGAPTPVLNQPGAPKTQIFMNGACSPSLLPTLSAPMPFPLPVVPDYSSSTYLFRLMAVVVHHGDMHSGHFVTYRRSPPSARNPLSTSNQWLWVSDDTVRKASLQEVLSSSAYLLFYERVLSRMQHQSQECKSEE
Description: biochemical.
Description: This panel included five proteases from the USP family, two from the UCH family, and one OTU. The IC50 values were determined in a well‐established biochemical activity assay using the fluorogenic substrate Ub‐Rho‐morpholine.^[ [33] ^] For USP18, which is unreactive to Ub but specific for ISG15, we used the ISG15CT‐Rho‐morpholine (consisting of the C‐terminal domain of ISG15) substrate to monitor its activity (see Supporting Information for preparation of this substrate).
as §1, §2, §3
room temperature, followed by the addition of substrate and direct read-out by fluorescence
IC50 and kinact/KI determination
as §4, §5, §6, §7, §8, §9, §10, §11, §12, §13, §14, §15, §16, §17, §18

The target of assay [7] is T5, UCHL1 (Homo sapiens, UniProt P09936).
T5 construct: (1-223); made in house
T5 sequence (P09936 1-223): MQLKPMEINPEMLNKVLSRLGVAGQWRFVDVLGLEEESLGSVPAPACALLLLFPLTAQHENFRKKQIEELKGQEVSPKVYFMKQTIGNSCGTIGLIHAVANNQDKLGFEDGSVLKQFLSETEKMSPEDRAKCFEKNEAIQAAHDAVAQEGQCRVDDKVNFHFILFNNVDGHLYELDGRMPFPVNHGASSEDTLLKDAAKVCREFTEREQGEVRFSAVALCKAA
Description: IC50 determination, fluorogenic Ub-Rho-morpholine activity assay. The assay is classed as biochemical. The note with it: for IC50: after 30 min incubation, purified compound.

Assay [8] addresses T6, USP7 (Homo sapiens, UniProt Q93009).
T6 construct: (1-1102); GST (cleaved yes); made in house
The description is as above. To be noted: after 30 min incubation; purified compound. Format: biochemical.

[9] abbreviates: carboxylic acid (CA) building block alone, read-out: %inh CA only.
[10] abbreviates: carboxylic acid (CA) with coupling reagents DIC/HOBT, read-out: %inh CA + DIC/HOBT.

T6 sequence (Q93009 whole entry): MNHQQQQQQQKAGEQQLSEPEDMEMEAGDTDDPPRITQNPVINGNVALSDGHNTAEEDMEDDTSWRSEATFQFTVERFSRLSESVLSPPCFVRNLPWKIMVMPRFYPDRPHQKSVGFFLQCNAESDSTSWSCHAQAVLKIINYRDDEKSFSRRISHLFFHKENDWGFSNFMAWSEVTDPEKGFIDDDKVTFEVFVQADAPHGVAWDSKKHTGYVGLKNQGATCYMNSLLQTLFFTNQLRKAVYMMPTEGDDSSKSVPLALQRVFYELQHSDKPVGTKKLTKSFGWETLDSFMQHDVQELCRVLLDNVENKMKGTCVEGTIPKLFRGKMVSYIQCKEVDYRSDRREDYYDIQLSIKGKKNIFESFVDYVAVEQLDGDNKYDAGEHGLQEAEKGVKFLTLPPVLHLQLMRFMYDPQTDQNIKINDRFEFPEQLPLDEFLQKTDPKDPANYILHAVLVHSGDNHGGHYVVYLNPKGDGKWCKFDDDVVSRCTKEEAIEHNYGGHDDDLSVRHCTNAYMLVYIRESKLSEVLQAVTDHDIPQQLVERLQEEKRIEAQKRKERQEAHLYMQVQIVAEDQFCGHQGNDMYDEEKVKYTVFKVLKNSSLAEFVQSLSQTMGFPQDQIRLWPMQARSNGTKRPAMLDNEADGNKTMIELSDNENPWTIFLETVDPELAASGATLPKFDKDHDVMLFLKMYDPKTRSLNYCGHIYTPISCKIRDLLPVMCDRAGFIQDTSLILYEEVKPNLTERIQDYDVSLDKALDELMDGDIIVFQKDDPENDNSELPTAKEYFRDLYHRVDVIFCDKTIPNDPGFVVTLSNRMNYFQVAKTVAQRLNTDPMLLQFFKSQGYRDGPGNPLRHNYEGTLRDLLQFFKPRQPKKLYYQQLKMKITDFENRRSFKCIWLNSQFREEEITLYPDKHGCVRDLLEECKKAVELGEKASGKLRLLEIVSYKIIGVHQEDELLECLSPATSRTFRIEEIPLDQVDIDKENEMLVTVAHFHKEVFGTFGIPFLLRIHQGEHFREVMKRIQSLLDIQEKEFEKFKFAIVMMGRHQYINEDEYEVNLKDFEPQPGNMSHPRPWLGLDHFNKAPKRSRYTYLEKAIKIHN

Turning to `O=C(O)C(CCc1ccccc1)c1ccccc1` (stereo not shown) [CA462], the inhibition at 1.25 µM in assay [1] (setting [9]) was -0.33%; in assay [1] (setting [10]), -1.15%.
For the compound `O=C(O)c1cccc(-c2ncon2)c1` [CA463], the inhibition at 1.25 µM was -1.44% in assay [1] (setting [9]) and -3.17% in assay [1] (setting [10]).
In the case of `COC1CC(C(=O)O)N(C(=O)OCc2ccccc2)C1` (stereo not shown) [CA464], the inhibition at 1.25 µM is -0.15% in assay [1] (setting [9]) and -1.5% in assay [1] (setting [10]).
Regarding `Cc1cccc(COc2cccc(C(=O)O)c2)c1` [CA465], the inhibition at 1.25 µM in assay [1] (setting [9]) stood at 2.43%; in assay [1] (setting [10]) it was 2.72%.
With `Cn1cc(-c2cc(C(=O)O)no2)cn1` [CA466], the results for the inhibition at 1.25 µM in assay [1] (setting [9]) and in assay [1] (setting [10]) were -0.57% and -1.79%, respectively.
The corresponding values for `O=C(O)Cc1ccc(NS(=O)(=O)c2cccc(C(F)(F)F)c2)cc1` [CA467] are -0.52% and 2.94%.
`CC1CCCCN1S(=O)(=O)c1ccccc1C(=O)O` (stereo not shown) [CA468]: the figures for the inhibition at 1.25 µM in assay [1] (setting [9]) and in assay [1] (setting [10]) were -4.17% and 7%, respectively.
As to `O=C(O)c1ccc(S(=O)(=O)N2CCCCCC2)cc1` [CA469], the inhibition at 1.25 µM in assay [1] (setting [9]) was -5.44%; in assay [1] (setting [10]), 4.89%.
For `COc1ccccc1-c1cc(C(=O)N[C@@H]2CCN(C#N)C2)n[nH]1` [Compound 2], the IC50 (as a rule, the midpoint of a concentration-inhibition curve) in assay [2] turned out to be 168 µM; in assay [3] it was 0.029 µM; in assay [4], 22.6 µM; in assay [5], 0.072 µM; in assay [6], 0.059 µM; in assay [7], 110 µM. In assay [8], this compound displayed a half-inhibitory concentration (IC50) of 52 µM.
For `N#CN1CC[C@@H](NC(=O)c2ccc(N3CCCC3)cc2F)C1` [Compound 3], the half-maximal inhibitory concentration (IC50) in assay [2] was over 200 µM; in assay [3], 5.5 µM; in assay [4], over 200 µM; in assay [5], 59 µM; in assay [6], 2.4 µM; in assay [7] it was over 200 µM. This compound showed a concentration for half-maximal inhibition (IC50) in assay [8] of 171 µM.
For the compound `N#CN1CC[C@@H](NC(=O)c2ccc(F)c(F)c2)C1` [Compound 4], the IC50 was over 200 µM in assay [2]; 9.8 µM in assay [3]; 262 µM in assay [4]; 184 µM in assay [5]; 0.89 µM in assay [6]; over 200 µM in assay [7]. The IC50 in assay [8] worked out at 210 µM.
As to `N#CN1CC[C@H](C(=O)Nc2ncc(N3CCOCC3)s2)C1` [Compound 5], the IC50 in assay [2] was over 200 µM; in assay [3] it was 5.1 µM; in assay [5], 242 µM. The “less potency toward USP18 and USP30 compared with UCHL1” value in assay [7] (ratio of IC50 values) is 20–40 fold.
On to `CCN1C(=O)C=CC1=O` [NEM], for which the “%inh CA only” value in assay [1] (carboxylic acid (CA) building block alone) is 100.10% and 99.62%. For the same compound, in assay [1] (carboxylic acid (CA) with coupling reagents DIC/HOBT), the “%inh CA + DIC/HOBT” value was 99.98% and 100.30%.
